# Measurements taken from patent US6610736B1, “16-Halogen-epothilone derivatives, method for producing them and their pharmaceutical use” (Schering AG, priority 1999, dated 2003).
# Key:
# [1] = test system: multi-drug-resistant NCl/ADR carcinoma cell line; assay: growth inhibition of multi-drug-resistant NCl/ADR cells, crystal-violet assay; type: cell-based, human; conditions: for IC50: crystal-violet assay; for Selectivity = IC50 (NCl/ADR) : IC50 (MCF-7): ratio of IC50 NCl/ADR to MCF-7; for selectivity in multi-drug-resistant cell line NCl/ADR in comparison to epothilone B: statement on Table 2
# Source text: (§1) a) IC50 values [nM] for the growth inhibition of human MCF-7 breast- and multi-drug-resistant NCl/ADR carcinoma cell lines of the epothilone derivatives with 13Z-olefins in a crystal-violet assay in comparison to epothilone D.
# (§2) b) IC50 values [nM] for the growth inhibition of human MCF-7 breast- and multidrug-resistant NCl/ADR carcinoma cell lines of the epothilone derivatives with 13,14-α-epoxide in a crystal-violet assay in comparison to epothilone B.
# [2] = test system: human MCF-7 breast carcinoma cell line; assay: growth inhibition of MCF-7 cells, crystal-violet assay; type: cell-based; conditions: for IC50: crystal-violet assay; for active strength in comparison to reference compound epothilone D: statement on Table 1; for active strength in comparison to reference compound epothilone B: statement on Table 2
# Source text: as §1, §2
# [3] = Table 1, 13Z-olefins, in comparison to epothilone D
# [4] = Table 2, 13,14-α-epoxides, in comparison to epothilone B
molecule,measurement,setting,value
"C/C1=C/C[C@@H](/C(F)=C/c2csc(C)n2)OC(=O)C[C@H](O)C(C)(C)C(=O)[C@H](C)[C@@H](O)[C@@H](C)CCC1 [Example 1, (4S,7R,8S,9S,13(Z),16S(Z))-4,8-Dihydroxy-16-(1-fluoro-2-(2-methyl-4-thiazolyl)ethenyl)-1-oxa-5,5,7,9,13-pentamethyl-cyclohexadec-13-ene-2,6-dione]",IC50,[1]; [3],12 nM
same,Selectivity = IC50 (NCl/ADR) : IC50 (MCF-7),[1]; Table 1,2.8
same,IC50,[2]; [3],4.3 nM
same,active strength in comparison to reference compound epothilone D,[2],significantly higher active strength
"Cc1nc(/C=C(\Cl)[C@@H]2C[C@@H]3O[C@]3(C)CCC[C@H](C)[C@H](O)[C@@H](C)C(=O)C(C)(C)[C@@H](O)CC(=O)O2)cs1 [Example 7A, (1S,3S(Z),7S,10R,11S,12S,16R)-7,11-Dihydroxy-3-(1-chloro-2-(2-methyl-4-thiazolyl)ethenyl)-8,8,10,12,16-pentamethyl-4,17-dioxabicyclo[14.1.0]heptadecane-5,9-dione]",IC50,[1]; [4],6 nM
same,Selectivity = IC50 (NCl/ADR) : IC50 (MCF-7),[1]; Table 2,7.5
same,IC50,[2]; [4],0.8 nM
"(4S,7R,8S,9S,13(Z),16S(Z)-4,8-Dihydroxy-9,13-diethyl-7-ethyl-16-(1-fluoro-2-(2-methyl-4-thiazolyl)ethenyl)-1-oxa-5,5-(1,3-trimethylene)cyclohexadec-13-ene-2,6-dione [Example 13]",IC50,[1]; [3],28 nM
same,Selectivity = IC50 (NCl/ADR) : IC50 (MCF-7),[1]; Table 1,4.8
same,IC50,[2]; [3],5.8 nM
same,active strength in comparison to reference compound epothilone D,[2],significantly higher active strength
"CC(=O)O[C@H]1C(=O)[C@@]2(C)[C@H]([C@H](OC(=O)c3ccccc3)[C@]3(O)C[C@H](OC(=O)[C@H](O)[C@@H](NC(=O)c4ccccc4)c4ccccc4)C(C)=C1C3(C)C)[C@]1(OC(C)=O)CO[C@@H]1C[C@@H]2O [Taxol, reference compound]",IC50,"[1]; Homo sapiens, Table 1, 13Z-olefins, in comparison to epothilone D",> 100 nM
same,Selectivity = IC50 (NCl/ADR) : IC50 (MCF-7),[1]; Table 1,>>25
same,IC50,[1]; [4],> 100 nM
same,Selectivity = IC50 (NCl/ADR) : IC50 (MCF-7),[1]; Table 2,>>25
same,IC50,"[2]; Homo sapiens, MCF7, Table 1, 13Z-olefins, in comparison to epothilone D",4 nM
C/C1=C/C[C@@H](/C(C)=C/c2csc(C)n2)OC(=O)C[C@H](O)C(C)(C)C(=O)[C@H](C)[C@@H](O)[C@@H](C)CCC1 [Epothilone D],IC50,[1]; [3],50 nM
same,Selectivity = IC50 (NCl/ADR) : IC50 (MCF-7),[1]; Table 1,2.2
same,IC50,[2]; [3],23 nM
"CC[C@H]1C(=O)C2(CCC2)[C@@H](O)CC(=O)O[C@H](/C(F)=C/c2csc(C)n2)C[C@@H]2O[C@]2(C)CCC[C@H](C)[C@@H]1O [Example 14A, (1S,3S(Z),7S,10R,11S,12S,16R)-7,11-Dihydroxy-12,16-dimethyl-10-ethyl-3-(1-fluoro-2-(2-methyl-4-thiazolyl)ethenyl) 8,8-(1,3-trimethylene)-4,17-dioxabicyclo[14.1.0]hepta-decane-5,9-dione]",IC50,[1]; [4],3.5 nM
same,Selectivity = IC50 (NCl/ADR) : IC50 (MCF-7),[1]; Table 2,7.0
same,IC50,[2]; [4],0.5 nM
same,active strength in comparison to reference compound epothilone B,[2],comparable or significantly higher active strength
"Cc1nc(C=C(F)C2CC3OC3(C)CCCC(C)C(O)C(C)C(=O)C3(CCC3)C(O)CC(=O)O2)cs1 [Example 10A, (1S,3S(Z),7S,10R,11S,12S,16R)-7,11-Dihydroxy-3-((1-fluoro)-2-(2-methyl-4-thiazolyl)ethenyl)-10,12,16-trimethyl-8,8-(1,3-trimethylene)-4,17-dioxabicyclo[14.1.0]hepta-deca-5,9-dione]",IC50,[1]; [4],3.9 nM
same,Selectivity = IC50 (NCl/ADR) : IC50 (MCF-7),[1]; Table 2,1.9
same,selectivity in multi-drug-resistant cell line NCl/ADR in comparison to epothilone B,[1],improved selectivity
same,IC50,[2]; [4],2.1 nM
"CC[C@H]1C(=O)C(C)(C)[C@@H](O)CC(=O)O[C@H](/C(F)=C/c2ccccn2)C[C@@H]2O[C@]2(C)CCC[C@H](C)[C@@H]1O [Example 20A, (1S,3S(Z),7S,10R,11S,12S,16R)-7,11-Dihydroxy-10-ethyl-3-(1-fluoro-2-(2-pyridyl)ethenyl)-8,8,12,16-tetramethyl-4,17-dioxabicyclo[14.1.0]heptadecane-5,9-dione]",IC50,[1]; [4],4.6 nM
same,Selectivity = IC50 (NCl/ADR) : IC50 (MCF-7),[1]; Table 2,7.6
same,IC50,[2]; [4],0.6 nM
same,active strength in comparison to reference compound epothilone B,[2],comparable or significantly higher active strength
"CC[C@H]1C(=O)C(C)(C)[C@@H](O)CC(=O)O[C@H](/C(F)=C/c2ccccn2)C/C=C(/C)CCC[C@H](C)[C@@H]1O [Example 17, (4S,7R,8S,9S,13Z,16S(Z))-4,8-Dihydroxy-16-(1-fluoro-2-(2-pyridyl)ethenyl)-7-ethyl-1-oxa-5,5,9,13-tetramethyl-cyclohexadec-13-ene-2,6-dione]",IC50,[1]; [3],33 nM
same,Selectivity = IC50 (NCl/ADR) : IC50 (MCF-7),[1]; Table 1,5.4
same,IC50,[2]; [3],6.1 nM
same,active strength in comparison to reference compound epothilone D,[2],significantly higher active strength
C/C1=C/C[C@@H](/C(F)=C/c2csc(C)n2)OC(=O)C[C@H](O)C2(CCC2)C(=O)[C@H](C)[C@@H](O)[C@@H](C)CCC1 [Example 9],IC50,[1]; [3],10 nM
same,Selectivity = IC50 (NCl/ADR) : IC50 (MCF-7),[1]; Table 1,2.0
same,IC50,[2]; [3],5 nM
same,active strength in comparison to reference compound epothilone D,[2],significantly higher active strength
"Cc1nc(/C=C(\F)[C@@H]2C[C@@H]3O[C@]3(C)CCC[C@H](C)[C@H](O)[C@@H](C)C(=O)C(C)(C)[C@@H](O)CC(=O)O2)cs1 [Example 3B, (1S,3S(Z),7S,10R,11S,12S,16R)-7,11-dihydroxy-3-(1-fluoro-2-(2-methyl-4-thiazolyl)ethenyl)-8,8,10,12,16-pentamethyl-4,17-dioxabicyclo[14.1.0]heptadecane-5,9-dione]",IC50,[1]; [4],1.4 nM
same,Selectivity = IC50 (NCl/ADR) : IC50 (MCF-7),[1]; Table 2,4.7
same,selectivity in multi-drug-resistant cell line NCl/ADR in comparison to epothilone B,[1],improved selectivity
same,IC50,[2]; [4],0.3 nM
same,active strength in comparison to reference compound epothilone B,[2],comparable or significantly higher active strength
"C/C1=C/C[C@@H](/C(Cl)=C/c2csc(C)n2)OC(=O)C[C@H](O)C(C)(C)C(=O)[C@H](C)[C@@H](O)[C@@H](C)CCC1 [Example 5, (4S,7R,8S,9S,13(Z),16S(Z))-4,8-Dihydroxy-16-(1-chloro-2-(2-methyl-4-thiazolyl)ethenyl)-1-oxa-5,5,7,9,13-pentamethyl-cyclohexadec-13-ene-2,6-dione]",IC50,[1]; [3],37 nM
same,Selectivity = IC50 (NCl/ADR) : IC50 (MCF-7),[1]; Table 1,7.3
same,IC50,[2]; [3],5.1 nM
"C/C(=C\c1csc(C)n1)[C@@H]1C[C@@H]2O[C@]2(C)CCC[C@H](C)[C@H](O)[C@@H](C)C(=O)C(C)(C)[C@@H](O)CC(=O)O1 [Epothilone B, reference compound]",IC50,[1]; [4],3.5 nM
same,Selectivity = IC50 (NCl/ADR) : IC50 (MCF-7),[1]; Table 2,5.8
same,IC50,[2]; [4],0.6 nM
